Laboratory results as given in US20180360972A1, “THERAPEUTIC COMPOUNDS” (REGENTS OF THE UNIVERSITY OF MINNESOTA, priority 2017, published 2018).
One block for each compound: values may come before it. Square brackets hold non-standard residues; d marks the D form. Peptide text beside a SMILES is read from it. d2Nal = N[C@H](Cc1ccc2ccccc2c1)C(=O)O

What was measured:
mMC5R = mMC5R (Mus musculus, UniProt P41149); experiment: mMC5R | Agonist EC50 (nM)
Protocol: Table printed on a drawing sheet, Figure 23
The cAMP signaling potency was determined by AlphaScreen® assays. The reported errors are the standard error of the mean (SEM) determined from at least three independent experiments. Changes less than 3-fold were considered to be within the inherent experimental assay error. NS means compound was not soluble in bioassay compatible solvent.

hMC4R [1] = molecular target: T1, hMC4R (Homo sapiens, UniProt P32245); experiment: AlphaScreen cAMP functional bioassay, hMC4R; format: cell-based
T1 construct: Flag; expressed in transfected cells
Protocol: Upon agonist stimulation, melanocortin receptors are known to signal through a Gαs-protein mediated signaling pathway that results in intracellular cAMP accumulation.
Stable populations were selected for using G418 selection (0.7-1.0 mg/mL) and used in bioassays unless indicated otherwise. In vitro experimental ligands were dissolved to a 10^−2 M stock in DMSO and stored at −20° C. Subsequent dilutions were performed in each assay's specific buffer to achieve the final concentration in the well. The ligands were assayed as TFA salts.
AlphaScreen cAMP Functional Bioassay
The AlphaScreen® assay was performed as described by manufacturer.
Cells were removed from plates using Gibco® Versene solution and pelleted by centrifugation (Sorvall Super T21 high speed centrifuge, swinging bucket rotor) at 800 rpm for five minutes. […] A 10 μL aliquot of cell suspension was counted manually using a hemocytometer after addition of Trypan blue dye (BioRad). Cells were again pelleted by centrifugation, and DPBS was gently aspirated. The pelleted cells were then resuspended in a solution of freshly made stimulation buffer (Hank's Balanced Salt Solution [HBSS 10× [−] sodium bicarbonate] and [−] phenol red, Gibco®], 0.5 mM isobutylmethylxanthine [IBMX], 5 mM HEPES buffer solution [1M, Gibco®], 0.1% bovine serum albumin [BSA] in Milli-Q water, pH=7.4) and anti-cAMP acceptor beads (1.0 unit per well, AlphaScreen®). […] The cells were then stimulated with ligand diluted in stimulation buffer to achieve their final concentrations in the well ranging from 10^−13 to 10^−4 M. The stimulated plates were incubated in a dark laboratory drawer at room temperature for two hours.
Meanwhile, a biotinylated cAMP/streptavidin donor bead working solution was made by adding biotinylated cAMP (1 Unit/well, AlphaScreen®) and streptavidin donor beads (1 Unit/well, AlphaScreen®) to a lysis buffer (10% Tween-20, 5 mM HEPES buffer solution [1M, Gibco®], 0.1% bovine serum albumin [BSA] in Milli-Q water, pH=7.4). After the two hour stimulation, the biotinylated cAMP/Streptavidin donor bead working solution was added to each well under green light and mixed well by pipetting up and down. The cells were incubated for another two hours at room temperature in a dark drawer at room temperature. The plate was then read on an EnSpire™ Alpha plate reader using a pre-normalized assay protocol set by the manufacturer. Assays were performed with duplicate data points on each plate and repeated in at least three independent experiments.
Dose response curves were analyzed using the PRISM program (v4.0; GraphPad Inc.).
Target sequence in this assay (P32245 whole entry): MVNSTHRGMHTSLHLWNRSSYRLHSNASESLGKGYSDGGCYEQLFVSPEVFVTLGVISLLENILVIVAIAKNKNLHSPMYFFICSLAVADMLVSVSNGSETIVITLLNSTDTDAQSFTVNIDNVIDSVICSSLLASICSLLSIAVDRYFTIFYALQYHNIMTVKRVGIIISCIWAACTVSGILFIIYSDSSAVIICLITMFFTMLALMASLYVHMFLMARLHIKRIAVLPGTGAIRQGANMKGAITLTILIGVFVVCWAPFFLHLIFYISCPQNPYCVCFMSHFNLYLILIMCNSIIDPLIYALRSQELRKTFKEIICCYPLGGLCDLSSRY

hMC4R [2] = molecular target: T1, hMC4R; experiment: PRESTO-Tango β-arrestin recruitment assay; format: cell-based; details: for fold increase in β-arrestin recruitment compared to CJL-1-14: vs tetrapeptide CJL-1-14
Protocol: The PRESTO-Tango technology is an open-source resource that has been utilized to identify ligands for orphan receptors based on β-arrestin recruitment.
The plasmids and assay technology was kindly provided by the Bryan Roth laboratory (University of North Carolina at Chapel Hill) and are now available through ADDGENE (Kit # 1000000068).
The first day of the assay, HTLA cells were plated at approximately 1×10^6 cells per 10 cm plate and grown to 20-40% confluency. […] The third day, cells were removed from 10 cm plates using Gibco® Versene solution and pelleted by centrifugation (Sorvall Super T21 high speed centrifuge, swinging bucket rotor) at 800 rpm for five minutes at room temperature. Cells were manually counted on a hemocytometer and resuspended in 1% dialyzed FBS and 1% penicillin/streptomycin in DMEM to a final concentration of 400,000 cells/mL. […] Stimulated cells were incubated for 18 hours in 5% CO2 at 37° C. On the fifth day, the assay buffer and cell medium was removed by aspiration. […] After incubation, luminescence was then read on an EnSpire™ Alpha plate reader using a pre-normalized assay protocol for luminescence set by the manufacturer. Dose response curves were analyzed using the PRISM program (v4.0; GraphPad Inc.).
Target sequence in this assay (P32245 whole entry): as above

hMC4R [3] = molecular target: T1, hMC4R; experiment: cAMP Signaling | EC50 (nM)
Protocol: Table printed on a drawing sheet, Figure 20
The cAMP signaling potency was determined by AlphaScreen™ assays. […] The reported errors are the standard error of the mean (SEM) determined from at least three independent experiments. Changes less than 3-fold were considered to be within the inherent experimental assay error.
Target sequence in this assay (P32245 whole entry, looked up): as the sequence (P32245 whole entry) above

hMC4R [4] = molecular target: T1, hMC4R; experiment: β-Arrestin Recruitment | EC50 (nM)
Target sequence in this assay (P32245 whole entry, looked up): as the sequence (P32245 whole entry) above

[5] = molecular target: mMC4R-NanoLuc and mMC4R-HaloTag homodimer (Mus musculus, UniProt P56450); experiment: NanoBRET ligand-dependent modulation of BRET signal; details: 10^−5, 10^−7 and 10^−9 M vs assay buffer
Sequence of mMC4R-NanoLuc and mMC4R-HaloTag homodimer (P56450 whole entry): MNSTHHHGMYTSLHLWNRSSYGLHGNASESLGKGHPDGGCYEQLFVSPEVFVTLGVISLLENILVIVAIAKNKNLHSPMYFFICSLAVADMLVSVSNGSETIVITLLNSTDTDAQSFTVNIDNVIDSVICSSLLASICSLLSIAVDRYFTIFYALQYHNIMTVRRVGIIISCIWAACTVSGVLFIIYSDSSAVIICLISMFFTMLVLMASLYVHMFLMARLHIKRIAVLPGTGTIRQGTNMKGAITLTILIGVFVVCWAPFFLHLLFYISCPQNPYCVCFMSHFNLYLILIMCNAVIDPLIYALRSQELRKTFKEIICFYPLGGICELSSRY
Sequence of mMC4R-NanoLuc and mMC4R-HaloTag homodimer (P56450 whole entry): as above
Protocol: On the first day, cells were plated into 6 well plates in the morning. In the afternoon of the same day, cells were transiently transfected with mMC4R-NanoLuc® fusion protein and the MC4R-HaloTag® fusion protein by adding FuGene6 Transfection (8 μL/well, Promega), DNA (2 μg/well) in OptiMem medium (Invitrogen) at a total volume of 100 μL/well. […] Cells were incubated with transfection reagent overnight at 5% CO2 at 37° C.
This provides the background signal and was subtracted from the final experimental signal. Plates were then developed 48 to 60 hours after transfection. Two hours before the plates were developed, 10 μL of a 10× aliquot of the ligand diluted in assay buffer was added to each well to yield the final in well concentration (10^−5, 10^−7, or 10^−9M) of each compound. For the assay buffer control, 10 μL of assay buffer was added instead of compound. […] The standard error of the mean (SEM) was derived from at least three independent experiments.

Sequence of mMC5R (P41149 whole entry, looked up): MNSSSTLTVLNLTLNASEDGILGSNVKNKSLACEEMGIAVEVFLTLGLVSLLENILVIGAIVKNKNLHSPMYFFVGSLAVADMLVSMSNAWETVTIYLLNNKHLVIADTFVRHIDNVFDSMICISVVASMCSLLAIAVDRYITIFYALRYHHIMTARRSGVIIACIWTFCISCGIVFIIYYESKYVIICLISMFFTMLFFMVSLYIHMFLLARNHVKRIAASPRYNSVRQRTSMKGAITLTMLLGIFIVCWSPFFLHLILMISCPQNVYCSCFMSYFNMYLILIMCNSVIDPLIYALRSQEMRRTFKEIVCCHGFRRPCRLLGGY

EC50 (mMC5R): 9.8 ± 2.7 nM
SMILES: CC(=O)N[C@@H](Cc1c[nH]cn1)C(=O)N[C@H](Cc1ccccc1)C(=O)N[C@@H](CCCNC(=N)N)C(=O)N[C@@H](Cc1c[nH]c2ccccc12)C(N)=O [CJL-1-14, Ac-His-DPhe-Arg-Trp-NH2]

cAMP agonist potency (in words) (hMC4R [1]; HEK293 cells stably expressing hMC4R): single digit nanomolar agonists
β-arrestin response compared to maximal efficacy of NDP-MSH (hMC4R [2]; at 10 μM): 55%
EC50 (hMC4R [3]): 1.9 ± 0.2 nM
SMILES: CC(=O)N[C@@H](Cc1c[nH]cn1)C(=O)N[C@H](Cc1ccc2ccccc2c1)C(=O)N[C@@H](CCCNC(=N)N)C(=O)N[C@@H](Cc1c[nH]c2ccccc12)C(=O)N1CCC[C@H]1C(=O)NCC(=O)N1CCC[C@H]1C(=O)NCC(=O)N1CCC[C@H]1C(=O)NCC(=O)N1CCC[C@H]1C(=O)NCC(=O)N1CCC[C@H]1C(=O)NCC(=O)N1CCC[C@H]1C(=O)NCC(=O)N[C@@H](Cc1c[nH]cn1)C(=O)N[C@H](Cc1ccccc1)C(=O)N[C@@H](CCCNC(=N)N)C(=O)N[C@@H](Cc1c[nH]c2ccccc12)C(N)=O [CJL-1-63, Ac-His-DNal(2′)-Arg-Trp-(Pro-Gly)6-His-DPhe-Arg-Trp-NH2] (Ac-H[d2Nal]RWPGPGPGPGPGPGH[dF]RW-NH2)

fold increase in β-arrestin recruitment compared to CJL-1-14 (hMC4R [2]): < 3 fold
EC50 (hMC4R [3]): 2 ± 0.3 nM
EC50 (hMC4R [4]): 140 ± 70 nM
SMILES: N=C(N)NCCC[C@H](NC(=O)[C@@H](Cc1ccccc1)NC(=O)[C@H](Cc1c[nH]cn1)NC(=O)COCC(=O)NCCCOCCOCCOCCCN)C(=O)N[C@@H](Cc1c[nH]c2ccccc12)C(N)=O [CJL-1-116]

cAMP accumulation of that seen with NDP-MSH (hMC4R [1]; at 10 μM): 70%
change in BRET signal (in words) [5]: no significant changes in BRET signal
β-arrestin recruitment efficacy (in words) (hMC4R [2]; relative to NDP-MSH control, up to 10 μM): equal or lower β-arrestin recruitment
SMILES: CC(=O)N[C@@H](Cc1c[nH]cn1)C(=O)N[C@H](Cc1ccc2ccccc2c1)C(=O)N[C@@H](CCCNC(=N)N)C(=O)N[C@@H](Cc1c[nH]c2ccccc12)C(=O)NCCCOCCOCCOCCCNC(=O)COCC(=O)N[C@@H](Cc1c[nH]cn1)C(=O)N[C@H](Cc1ccc2ccccc2c1)C(=O)N[C@@H](CCCNC(=N)N)C(=O)N[C@@H](Cc1c[nH]c2ccccc12)C(N)=O [CJL-1-140]

fold increase in cAMP potency compared to CJL-1-14 (hMC4R [1]; vs monovalent tetrapeptide CJL-1-14): 3 fold
fold increase in β-arrestin recruitment compared to CJL-1-14 (hMC4R [2]): 5 fold
SMILES: CC(=O)N[C@@H](Cc1c[nH]cn1)C(=O)N[C@H](Cc1ccccc1)C(=O)N[C@@H](CCCNC(=N)N)C(=O)N[C@@H](Cc1c[nH]c2ccccc12)C(=O)NCCCOCCOCCOCCCNC(=O)COCC(N)=O [CJL-5-35-4, reference compound]
